Bounds are passed on as bounds.

In general, Kd refers to the free concentration of one partner at which half of the binding sites on the other are occupied at equilibrium, for simple one-to-one binding. The low end stands for a tighter complex, the high end for a looser complex.

Test [1] is described as follows: DPH displacement from alpha-helical barrel, competitive inhibition assay, analyte palmitic acid. It is filed as binding. The following applies: barrel incubated with DPH or TMA-DPH; analyte 0.05-300 μM; fluorescence; read-out: Palmitic acid K1. Here is the method: (§1) The four analytes below were selected based on having hydrophobic properties and being able to adopt an elongate configuration, as these were postulated to have the best chance of displacing a reporter dye.
(§2) DPH was used as the reporter dye, and displacement of DPH was recorded using a standard competitive inhibition assay. In other words, the ability of an analyte to inhibit DPH binding was recorded by the inhibition constant Ki. Alpha-helical barrels were incubated with DPH, or its cationic variant 1-(4-trimethylammoniumphenyl)-6-phenyl-1,3,5-hexatriene p-toluenesulfonate (TMA-DPH). Analyte was added (0.05-300 μM) and the fluorescence signal measured.

A short description of test [2]: DPH displacement from alpha-helical barrel, competitive inhibition assay, analyte retinol. It is filed as binding. The following applies: barrel incubated with DPH or TMA-DPH; analyte 0.05-300 μM; fluorescence; read-out: Retinol K1. Here is the method:
as §1, §2

Test [3] in a line: DPH displacement from alpha-helical barrel, competitive inhibition assay, analyte beta-carotene. The following applies: barrel incubated with DPH or TMA-DPH; analyte 0.05-300 μM; fluorescence; dash = no competitive binding observed; read-out: B-carotene K1. On the procedure:
as §1, §2

Test [4] can be described thus: DPH displacement from alpha-helical barrel, competitive inhibition assay, analyte farnesol. The following applies: barrel incubated with DPH or TMA-DPH; analyte 0.05-300 μM; fluorescence; dash = no competitive binding observed; read-out: Famesol K1. Here is the method: as §1, §2
Test [5] in a line: Prodan reporter dye binding to alpha-helical barrel lumen (fluorescence titration). As to conditions: for Kd: prodan 1 μM incubated with alpha-helical barrel 0.5-500 μM for up to 2 hours, fluorescent signal, dash = did not bind; for prodan binding to alpha-helical barrel (in words): summary of KD table. On the procedure: (§3) The dyes 1,6-diphenyl-1,3,5-hexatriene (DPH) and 6-propionyl-2-dimethylaminonaphthalene (prodan) were assayed against a number of alpha-helical barrels to determine their dissociation constants, KD. DPH or prodan (1 μM) was incubated with varying concentrations of alpha-helical barrel (0.5-500 μM) for up to 2 hours, and the fluorescent signal measured at the corresponding emission wavelength.

Test [6] is described as follows: DPH reporter dye binding to alpha-helical barrel lumen (fluorescence titration). As to conditions: DPH 1 μM incubated with alpha-helical barrel 0.5-500 μM for up to 2 hours; fluorescent signal. On the procedure:
as §3

As to “GEIAKSLKEIAKSLKEIAWSLKEIAKSLKG [CC-Hex2, 6 helices in barrel]”, the Ki in test [1] was 1.1 ± 0.3 µM; in test [2], 4.6 ± 1.9 µM; in test [3], over 300 µM; in test [4], 8.6 ± 1.3 µM. For the same sequence, the Kd in test [5] worked out at 39.2 ± 6.8 µM; in test [6], 9.5 ± 1.1 µM.

For “GEIAQALREIAKALREIAWALREIAQALRG [CC-Hept, 7 helices in barrel]”, the Ki is 0.9 ± 0.3 µM in test [1], 4 ± 0.7 µM in test [2], 12.1 ± 5.4 µM in test [3] and 0.6 ± 0.2 µM in test [4]. Also, the Kd is 40.5 ± 4 µM in test [5] and 8.9 ± 2.2 µM in test [6].

With “GELKAIAQELKAIAKELKAIAWELKAIAQG [CC-Hex, 6 helices in barrel]”, the Ki is 1 ± 0.3 µM in test [1], 6.4 ± 3.2 µM in test [2], over 300 µM in test [3] and 23.9 ± 2.4 µM in test [4]. Also, the dissociation constant (Kd) was over 500 µM in test [5] and 7.1 ± 1.3 µM in test [6]. Also, the “prodan binding to alpha-helical barrel (in words)” value in test [5] is recorded as “did not bind”.

Consider “GKIEQILQKIEKILQKIEWILQKIEQILQG [CC-Pent, alpha helix self-assembling into alpha-helical barrel]”, for which the Ki in test [1] is 1.1 ± 0.5 µM; in test [2], 14.8 ± 4.1 µM; in test [3], over 300 µM; in test [4] it was over 300 µM. Also, the dissociation constant Kd is over 500 µM in test [5] and 22.4 ± 4.3 µM in test [6]. Besides, the “prodan binding to alpha-helical barrel (in words)” value in test [5] is “did not bind”.

The values above are taken from patent US20220178931A1, “Sensor” (The University of Bristol, priority 2019, published 2022).
